Assay results taken from US9549921B2, “Heterocyclic compounds and methods of use thereof for the treatment of hepatitis C” (priority 2014, dated 2017).
Where two headings read alike, the source gives them in different places.

Key:
HCV replicon genotype 1b = assay: HCV replicon assay, genotype 1b (cell ELISA for NS3/4A); format: cell-based, hepatitis C virus
Outline: (§1)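 Readout is NS3/4A protein level from an antibody-based cell ELISA, serving as an indirect measure of replicon RNA; IC50 fitted with a four-parameter function relative to DMSO control. Replicon cells, kept under G418 beforehand, were plated with serial compound dilutions minus G418 for 96 hours.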

HCV replicon genotype 1a = assay: HCV replicon assay, genotype 1a (cell ELISA for NS3/4A); format: cell-based, hepatitis C virus
Outline: as §1

[1] = Hepatitis C virus, 96 h, read-out: 1b IC50 (nM), HCV genotype 1b replicon cells, 96 hours incubation, NS3/4A ELISA readout, % of DMSO control
[2] = Hepatitis C virus, 96 h, read-out: 1a IC50 (nM), HCV genotype 1a replicon cells, 96 hours incubation, NS3/4A ELISA readout, % of DMSO control

Compound	IC50 (HCV replicon genotype 1b; [1])	IC50 (HCV replicon genotype 1a; [2])	IC50 (HCV replicon genotype 1b; read-out: 1b IC50, HCV genotype 1b replicon cells, 96 hours incubation, NS3/4A ELISA readout, % of DMSO control)	IC50 (HCV replicon genotype 1a; read-out: 1a IC50, HCV genotype 1a replicon cells, 96 hours incubation, NS3/4A ELISA readout, % of DMSO control)
CNC(=O)c1c(-c2ccc(F)cc2)oc2cc(N(C)S(C)(=O)=O)c([C@@H]3CCCN(C(=O)CC4CCCCC4)C3)cc12 [Example 68, 5-[1-(cyclohexylacetyl)piperidin-3-yl]-2-(4-fluorophenyl)-N-methyl-6-[methyl(methylsulfonyl)amino]-1-benzofuran-3-carboxamide]	89 nM	98 nM		
CNC(=O)c1c(-c2ccc(F)cc2)oc2cc(N(C)S(C)(=O)=O)c([C@@H]3CCCN(C(=O)c4nc5ccccc5s4)C3)cc12 [Example 69, 5-[1-(1,3-benzothiazol-2-ylcarbonyl)piperidin-3-yl]-2-(4-fluorophenyl)-N-methyl-6-[methyl(methylsulfonyl)amino]-1-benzofuran-3-carboxamide]	22.8 nM	74.4 nM		
CNC(=O)c1c(-c2ccc(F)cc2)oc2cc(N(C)S(C)(=O)=O)c([C@@H]3CCCN(C(=O)c4c[nH]cc4-c4ccc(F)cc4)C3)cc12 [Example 71, 2-(4-fluorophenyl)-5-(1-{[4-(4-fluorophenyl)-1H-pyrrol-3-yl]carbonyl}piperidin-3-yl)-N-methyl-6-[methyl(methylsulfonyl)amino]-1-benzofuran-3-carboxamide]	95.4 nM	168 nM		
CNC(=O)c1c(-c2ccc(F)cc2)oc2cc(N(C)S(C)(=O)=O)c([C@@H]3CCCN(C(=O)c4coc(-c5ccc(F)cc5)n4)C3)cc12 [Example 72, 2-(4-fluorophenyl)-5-(1-{[2-(4-fluorophenyl)-1,3-oxazol-4-yl]carbonyl}piperidin-3-yl)-N-methyl-6-[methyl(methylsulfonyl)amino]-1-benzofuran-3-carboxamide]	23.6 nM	125 nM		
CNC(=O)c1c(-c2ccc(F)cc2)oc2cc(N(C)S(C)(=O)=O)c([C@@H]3CCCN(C(=O)c4cc(-c5ccc(F)cc5)n[nH]4)C3)cc12 [Example 73, 2-(4-fluorophenyl)-5-(1-{[3-(4-fluorophenyl)-1H-pyrazol-5-yl]carbonyl}piperidin-3-yl)-N-methyl-6-[methyl(methylsulfonyl)amino]-1-benzofuran-3-carboxamide]	23.4 nM	50.5 nM		
CNC(=O)c1c(-c2ccc(F)cc2)oc2cc(N(C)S(C)(=O)=O)c([C@@H]3CCCN(C(=O)c4cc5sccc5n4C)C3)cc12 [Example 74, 2-(4-fluorophenyl)-N-methyl-6-[methyl(methylsulfonyl)amino]-5-{1-[(4-methyl-4H-thieno[3,2-b]pyrrol-5-yl)carbonyl]piperidin-3-yl}-1-benzofuran-3-carboxamide]	43.4 nM	54.8 nM		
CNC(=O)c1c(-c2ccc(F)cc2)oc2cc(N(C)S(C)(=O)=O)c([C@@H]3CCCN(C(=O)c4nc5ccc(F)cc5s4)C3)cc12 [Example 75, 5-{1-[(6-fluoro-1,3-benzothiazol-2-yl)carbonyl]piperidin-3-yl}-2-(4-fluorophenyl)-N-methyl-6-[methyl(methylsulfonyl)amino]-1-benzofuran-3-carboxamide]	12 nM	72.3 nM		
CNC(=O)c1c(-c2ccc(F)cc2)oc2cc(N(C)S(C)(=O)=O)c([C@@H]3CCCN(C(=O)c4nc5ccc(F)cc5[nH]4)C3)cc12 [Example 76, 5-{1-[(6-fluoro-1H-benzimidazol-2-yl)carbonyl]piperidin-3-yl}-2-(4-fluorophenyl)-N-methyl-6-[methyl(methylsulfonyl)amino]-1-benzofuran-3-carboxamide]	9.96 nM	49.4 nM		
CNC(=O)c1c(-c2ccc(F)cc2)oc2cc(N(C)S(C)(=O)=O)c([C@@H]3CCCN(C(=O)c4nc5ccccc5o4)C3)cc12 [Example 77, 5-[1-(1,3-benzoxazol-2-ylcarbonyl)piperidin-3-yl]-2-(4-fluorophenyl)-N-methyl-6-[methyl(methylsulfonyl)amino]-1-benzofuran-3-carboxamide]	19.2 nM	64.3 nM		
CNC(=O)c1c(-c2ccc(F)cc2)oc2cc(N(C)S(C)(=O)=O)c([C@@H]3CCCN(C(=O)C4CC4c4ccccn4)C3)cc12 (some centres unmarked) [Example 78, 2-(4-fluorophenyl)-N-methyl-6-[methyl(methylsulfonyl)amino]-5-{1-[(2-pyridin-2-ylcyclopropyl)carbonyl]piperidin-3-yl}-1-benzofuran-3-carboxamide]			81.2 nM	248 nM
CNC(=O)c1c(-c2ccc(F)cc2)oc2cc(N(C)S(C)(=O)=O)c([C@H]3CCCN(S(=O)(=O)/C=C/c4ccccc4)C3)cc12 [Example 79, 2-(4-fluorophenyl)-N-methyl-6-[methyl(methylsulfonyl)amino]-5-[(3R)-1-{[(E)-2-phenylethenyl]sulfonyl}piperidin-3-yl]-1-benzofuran-3-carboxamide]	33.1 nM	64.8 nM		
CNC(=O)c1c(-c2ccc(F)cc2)oc2cc(N(C)S(C)(=O)=O)c([C@H]3CCCN(S(=O)(=O)Cc4ccc(F)cc4)C3)cc12 [Example 80, 5-{(3R)-1-[(4-fluorobenzyl)sulfonyl]piperidin-3-yl}-2-(4-fluorophenyl)-N-methyl-6-[methyl(methylsulfonyl)amino]-1-benzofuran-3-carboxamide]	4.5 nM	3.17 nM		
CNC(=O)c1c(-c2ccc(F)cc2)oc2cc(N(C)S(C)(=O)=O)c([C@H]3CCCN(S(=O)(=O)Cc4ccccc4F)C3)cc12 [Example 81, 5-{(3R)-1-[(2-fluorobenzyl)sulfonyl]piperidin-3-yl}-2-(4-fluorophenyl)-N-methyl-6-[methyl(methylsulfonyl)amino]-1-benzofuran-3-carboxamide]	11.6 nM	14.1 nM		
CNC(=O)c1c(-c2ccc(F)cc2)oc2cc(N(C)S(C)(=O)=O)c([C@H]3CCCN(S(=O)(=O)Cc4cccc(F)c4)C3)cc12 [Example 82, 5-{(3R)-1-[(3-fluorobenzyl)sulfonyl]piperidin-3-yl}-2-(4-fluorophenyl)-N-methyl-6-[methyl(methylsulfonyl)amino]-1-benzofuran-3-carboxamide]	3.26 nM	2.2 nM		
CNC(=O)c1c(-c2ccc(F)cc2)oc2cc(N(C)S(C)(=O)=O)c([C@H]3CCCN(S(=O)(=O)c4cc5ccccc5o4)C3)cc12 [Example 83, 5-[(3R)-1-(1-benzofuran-2-ylsulfonyl)piperidin-3-yl]-2-(4-fluorophenyl)-N-methyl-6-[methyl(methylsulfonyl)amino]-1-benzofuran-3-carboxamide]	22.4 nM	38.2 nM		
CNC(=O)c1c(-c2ccc(F)cc2)oc2cc(N(C)S(C)(=O)=O)c([C@H]3CCCN(S(=O)(=O)Cc4ccc(F)c(F)c4)C3)cc12 [Example 84, 5-{(3R)-1-[(3,4-difluorobenzyl)sulfonyl]piperidin-3-yl}-2-(4-fluorophenyl)-N-methyl-6-[methyl(methylsulfonyl)amino]-1-benzofuran-3-carboxamide]	3.04 nM	2.77 nM		
CNC(=O)c1c(-c2ccc(F)cc2)oc2cc(N(C)S(C)(=O)=O)c([C@H]3CCCN(C(=O)c4cc5cc(F)ccc5n4C)C3)cc12 [Example 85, 5-{(3R)-1-[(5-fluoro-1-methyl-1H-indol-2-yl)carbonyl]piperidin-3-yl}-2-(4-fluorophenyl)-N-methyl-6-[methyl(methylsulfonyl)amino]-1-benzofuran-3-carboxamide]	12.5 nM	26 nM		
CNC(=O)c1c(-c2ccc(F)cc2)oc2cc(N(C)S(C)(=O)=O)c([C@H]3CCCN(C(=O)c4c(C)c5cc(F)ccc5n4C)C3)cc12 [Example 86, 5-{(3R)-1-[(5-fluoro-1,3-dimethyl-1H-indol-2-yl)carbonyl]piperidin-3-yl}-2-(4-fluorophenyl)-N-methyl-6-[methyl(methylsulfonyl)amino]-1-benzofuran-3-carboxamide]	115 nM	234 nM		
CNC(=O)c1c(-c2ccc(F)cc2)oc2cc(N(C)S(C)(=O)=O)c([C@H]3CCCN(C(=O)c4nc5ccccc5[nH]4)C3)cc12 [Example 87, 5-[(3R)-1-(1H-benzimidazol-2-ylcarbonyl)piperidin-3-yl]-2-(4-fluorophenyl)-N-methyl-6-[methyl(methylsulfonyl)amino]-1-benzofuran-3-carboxamide]	112 nM	267 nM		
CNC(=O)c1c(-c2ccc(F)cc2)oc2cc(N(C)S(C)(=O)=O)c([C@H]3CCCN(C(=O)c4cc5c(F)cccc5[nH]4)C3)cc12 [Example 88, 5-{(3R)-1-[(4-fluoro-1H-indol-2-yl)carbonyl]piperidin-3-yl}-2-(4-fluorophenyl)-N-methyl-6-[methyl(methylsulfonyl)amino]-1-benzofuran-3-carboxamide]	38.7 nM	70.7 nM		
CNC(=O)c1c(-c2ccc(F)cc2)oc2cc(N(C)S(C)(=O)=O)c([C@H]3CCCN(C(=O)c4cc5cc(C(F)(F)F)ccc5n4C)C3)cc12 [Example 89, 2-(4-fluorophenyl)-N-methyl-6-[methyl(methylsulfonyl)amino]-5-[(3R)-1-{[1-methyl-5-(trifluoromethyl)-1H-indol-2-yl]carbonyl}piperidin-3-yl]-1-benzofuran-3-carboxamide]	45.2 nM	84.4 nM		
CNC(=O)c1c(-c2ccc(F)cc2)oc2cc(N(C)S(C)(=O)=O)c([C@H]3CCCN(C(=O)c4cc5cc(F)ccc5[nH]4)C3)cc12 [Example 90, (R)-5-(1-(5-fluoro-1H-indole-2-carbonyl)piperidin-3-yl)-2-(4-fluorophenyl)-N-methyl-6-(N-methylmethylsulfonamido)benzofuran-3-carboxamide]	20.7 nM	41.6 nM		
